{"source": "patent US5017570A", "about": "“Dibenzoxazepine compounds useful in the treatment of cerebral vasospasm or its sequela” (Chugai Seiyaku Kabushiki Kaisha, priority 1986, dated 1991)", "key": {"basilar artery": {"test_system": "basilar artery", "assay": "Vasorelaxation of isolated basilar artery segments", "format": "cell-based, Beagles", "conditions": "1 × 10^-5 M; for vasorelaxating action: in words", "method": "Beagles of either sex weighing about 20 kg were anesthetized with i.v. administration of sodium […] (30 mg/kg) and were sacrificed by rapid exsanguination. After the brain was removed, the basilar artery was dissected out under magnification and was sectional in at 2- to 3-mm intervals. […] The segment was initially stretched at a tension of 400 mg for 1 hour with a force-displacement transducer (SB-1T, Nihon Kohden, Tokyo, Japan) during which time the buffer solution was changed several times. […] The total volume of agents never exceeded 25 μl or 5% of the chamber volume and experiments were done in the dark."}, "[1]": {"assay": "Experiment for subacute toxicity (30 days oral)", "format": "in vivo, male rats (F344/crj)", "conditions": "deaths/animals", "method": "Compounds No. 1, IV, VI and VII were administered orally to male rats (F344/crj) at doses of […] body weight daily for 30 days and body weight gain were measured."}, "[2]": {"test_system": "regional cerebral blood flow (r-CBF)", "assay": "r-CBF by hydrogen clearance method in unanesthetized and unrestrained cats", "format": "in vivo, Siamese cats", "text": "The present inventors therefore employed the hydrogen clearance method wherein unanesthetized and unrestrained cats, each having a platinum electrode embedded in the cerebral cortex at four points, i.e., post. sigmoid G., post. sylvian G., mid. ecto-sylvian G. and post. suprasylvian G., and in the deeper area of the brain at three points, i.e., hippocampus, amygdala and hypothalamus, were exposed to a predetermined amount of hydrogen gas in a chamber. Using this method, the effects of compound Nos. 1 and 2 of the present invention on the regional cerebral blood flow (r-CBF) were evaluated. At the same time, analyses of blood pressure, the pH of blood, the gaseous components of the blood, and blood sugar levels were conducted with catheters being embedded in the femoral artery and vein.\nOne month before the start of experiment, a platinum electrode was embedded in the cerebral cortex of Siamese cats (both female and male) at four points, i.e., post. sigmoid G., post sylvian G., mid. ecto-sylvian G. and post. suprasylvian G., and in the deeper area of the brain at three points, i.e., hippocampus, amygdala and hypothalamus, the cats being then exposed to a predetermined amount of hydrogen gas in a chamber in an unanesthetized and unrestrained state.\nIn order to evaluate the effects of compound Nos. 1 and 2 of the present invention on the regional cerebral blood flow (r-CBF), a predetermined amount of each test compound was administered either perorally (p.o.) in gelatin capsules or by intravenous injection (i.v.) In the latter case, 0.2 mg/kg or 1 mg/kg (body weight) of a selected compound of the present invention was dissolved in a quantity of physiological saline equivalent to 1 ml/kg (body weight) and the total amount of their solution was injected over a period of 10 minutes in a sustained manner through a cannula attached to a vein in the upper thigh; a control (vinpocetine) in an amount equivalent to 1 mg/kg or 5 mg/kg (body weight) was dissolved in a quantity of 10% ascorbic acid equivalent to […] (body weight) and the total amount of the solution was injected over a period of 10 minutes in a sustained manner through a cannula attached to a vein in the upper thigh.\nIn the r-CBF analysis, a clearance curve was obtained with a computer (Signal Processor 7T17, product of Nippon Electric Co., Ltd. and Sanei Co., Ltd.), transformed into semi-logarithmic values which were then processed by the initial slope method to calculate all the values of r-CBF. Only values having a coefficient of correlation of at least 0.9 for regression line were used as applicable data and the level of significance was determined by the paired-t test for absolute values, with the values before administration of a test compound being taken as a control. The level of significance for the control group was tested by time-series dispersion analysis."}, "[3]": {"assay": "Experiment for acute toxicity (oral LD50)", "conditions": "mouse, in vivo, 5-week old male CD-1 (ICR) mice", "method": "Nos. 1, 2, 3 and 4 of the present invention were administered orally to 5-week old male CD-1 (ICR) mice and the LD50 values (g/kg) were determined by a routine method."}, "[4]": {"test_system": "cyclic-GMP content in the thoracic aortae", "assay": "cyclic-GMP content in thoracic aorta rings by radioimmunoassay", "format": "cell-based, Sprague-Dawley male rats", "conditions": "1×10^-6, 10^-5 or 10^-4 M, 37° C., 30 minutes", "method": "Sprague-Dawley male rats were killed by decapitation, and their thoracic aortae were rapidly removed and immersed in ice-cold Krebs-Henseleit Ringer solution. The blood vessel was cut into rings with a length of about 3 mm and the weight of each wet tissue of the rings was measured. The rings of blood vessels were incubated at 37° C. for 30 minutes in portions of Krebs-Henseleit Ringer solution containing compound No. 1 (1×10^-6, 10^-5 or 10^-4 M) and vinpocetine (10^-4 M) under an atmosphere of 95% O2 - 5% CO2. Trichloroacetic acid (6%) was then added to the solution to stop the reaction and the cyclic-GMP content was determined by radioimunoassay method (YAMASA c-GMP Assay Kit)."}, "[5]": {"conditions": "minus: vasoconstriction, 0: no effect"}, "[6]": {"conditions": "i.v. over 10 minutes, 0.2 mg/kg"}}, "note": "Counter-ions that a name gives are not always drawn."}
{"smiles": "CCC1Nc2cc(C(=O)O)ccc2Oc2cc(OC)ccc21", "note": "(centres unmarked) [No. V, reference compound]", "values": [{"measurement": "Vasorelaxation", "setting": "basilar artery; [5]", "value": 0, "unit": "mg"}]}
{"smiles": "CCC1=Nc2cc(C(=O)O)ccc2Oc2cc(C)ccc21", "note": "[No. VII]", "values": [{"measurement": "death", "setting": "[1]; 1000 mg/kg daily for 30 days", "value": "5/6"}]}
{"smiles": "COc1ccc2c(c1)Oc1ccc(C(=O)O)cc1N=C2C", "note": "[Compound No. 1, 3-methoxy-11-methyldibenzo[b,f][1,4]oxazepin-8-carboxylic acid]", "values": [{"measurement": "Retention time", "setting": "[2]; p.o., 10 mg/kg", "value": "> 4", "unit": "h"}, {"measurement": "Percent increase of r-CBF, 30 min.", "setting": "[2]; p.o., 10 mg/kg", "value": 12.9, "unit": "%"}, {"measurement": "Percent increase of r-CBF, 60 min.", "setting": "[2]; p.o., 10 mg/kg", "value": 14.4, "unit": "%"}, {"measurement": "Retention time", "setting": "[2]; p.o., 20 mg/kg", "value": "> 4", "unit": "h"}, {"measurement": "Percent increase of r-CBF, 30 min.", "setting": "[2]; p.o., 20 mg/kg", "value": 11.8, "unit": "%"}, {"measurement": "Percent increase of r-CBF, 60 min.", "setting": "[2]; p.o., 20 mg/kg", "value": 11.0, "unit": "%"}, {"measurement": "Retention time", "setting": "[2]; p.o., 50 mg/kg", "value": "> 4", "unit": "h"}, {"measurement": "Percent increase of r-CBF, 30 min.", "setting": "[2]; p.o., 50 mg/kg", "value": 14.6, "unit": "%"}, {"measurement": "Percent increase of r-CBF, 60 min.", "setting": "[2]; p.o., 50 mg/kg", "value": 10.0, "unit": "%"}, {"measurement": "LD50", "setting": "[3]", "value": "3000 to 3500", "unit": "mg/kg"}, {"measurement": "cyclic-GMP content in the thoracic aortae", "setting": "[4]", "value": "increased dose-dependently"}, {"measurement": "vasorelaxating action", "setting": "basilar artery", "value": "show vasorelaxating action"}, {"measurement": "Relative Potency (vasorelaxation)", "setting": "basilar artery; No. 2 = 1.00, minus: vasoconstriction, 0: no effect", "value": 49.02}, {"measurement": "Vasorelaxation", "setting": "basilar artery; [5]", "value": 250.0, "unit": "mg"}]}
{"smiles": "CCOC(=O)C1=C[C@]2(CC)CCCN3CCc4c(n1c1ccccc41)[C@@H]32", "note": "[Vinpocetine, vinpocetine, reference compound]", "values": [{"measurement": "Percent increase of r-CBF, 30 min.", "setting": "[2]; i.v. over 10 minutes, 1 mg/kg", "value": 1.0, "unit": "%"}, {"measurement": "Percent increase of r-CBF, 60 min.", "setting": "[2]; i.v. over 10 minutes, 1 mg/kg", "value": "< 2.3", "unit": "%"}, {"measurement": "Retention time", "setting": "[2]; i.v. over 10 minutes, 5 mg/kg", "value": "< 1", "unit": "h"}, {"measurement": "Percent increase of r-CBF, 30 min.", "setting": "[2]; i.v. over 10 minutes, 5 mg/kg", "value": -0.9, "unit": "%"}, {"measurement": "Percent increase of r-CBF, 60 min.", "setting": "[2]; i.v. over 10 minutes, 5 mg/kg", "value": 8.3, "unit": "%"}, {"measurement": "Retention time", "setting": "[2]; p.o., 20 mg/kg", "value": "< 1", "unit": "h"}, {"measurement": "Percent increase of r-CBF, 30 min.", "setting": "[2]; p.o., 20 mg/kg", "value": 12.3, "unit": "%"}, {"measurement": "Percent increase of r-CBF, 60 min.", "setting": "[2]; p.o., 20 mg/kg", "value": 5.2, "unit": "%"}]}
{"smiles": "CCOC(=O)c1ccc2c(c1)N=C(CC)c1ccc(OC)cc1O2", "note": "[No. IV, reference compound]", "values": [{"measurement": "Vasorelaxation", "setting": "basilar artery; [5]", "value": 0, "unit": "mg"}, {"measurement": "death", "setting": "[1]; 2000 mg/kg daily for 30 days", "value": "4/6"}]}
{"smiles": "CCC1=Nc2cc(C(=O)O)ccc2Oc2cc(OC)ccc21", "note": "[Compound No. 2]", "values": [{"measurement": "Retention time", "setting": "[2]; p.o., 10 mg/kg", "value": "< 2", "unit": "h"}, {"measurement": "Percent increase of r-CBF, 30 min.", "setting": "[2]; p.o., 10 mg/kg", "value": 0.99, "unit": "%"}, {"measurement": "Percent increase of r-CBF, 60 min.", "setting": "[2]; p.o., 10 mg/kg", "value": 9.1, "unit": "%"}, {"measurement": "Retention time", "setting": "[2]; p.o., 20 mg/kg", "value": "> 4", "unit": "h"}, {"measurement": "Percent increase of r-CBF, 30 min.", "setting": "[2]; p.o., 20 mg/kg", "value": 13.8, "unit": "%"}, {"measurement": "Percent increase of r-CBF, 60 min.", "setting": "[2]; p.o., 20 mg/kg", "value": 19.6, "unit": "%"}, {"measurement": "Retention time", "setting": "[2]; p.o., 50 mg/kg", "value": "> 4", "unit": "h"}, {"measurement": "Percent increase of r-CBF, 30 min.", "setting": "[2]; p.o., 50 mg/kg", "value": 28.9, "unit": "%"}, {"measurement": "Percent increase of r-CBF, 60 min.", "setting": "[2]; p.o., 50 mg/kg", "value": 22.4, "unit": "%"}, {"measurement": "LD50", "setting": "[3]", "value": "4200 to 5000", "unit": "mg/kg"}, {"measurement": "vasorelaxating action", "setting": "basilar artery", "value": "show vasorelaxating action"}, {"measurement": "Vasorelaxation", "setting": "basilar artery; [5]", "value": 5.1, "unit": "mg"}]}
{"smiles": "COc1ccc2c(c1)Oc1ccc(C(=O)O)cc1N=C2C", "note": "[1 (Na salt), sodium salt of 3-methoxy-11-methyldibenzo[b,f][1,4]oxazepin-8-carboxylic acid]", "values": [{"measurement": "Retention time", "setting": "[2]; [6]", "value": "< 4", "unit": "h"}, {"measurement": "Percent increase of r-CBF, 30 min.", "setting": "[2]; [6]", "value": 9.5, "unit": "%"}, {"measurement": "Percent increase of r-CBF, 60 min.", "setting": "[2]; [6]", "value": 13.6, "unit": "%"}, {"measurement": "Retention time", "setting": "[2]; i.v. over 10 minutes, 1 mg/kg", "value": "> 4", "unit": "h"}, {"measurement": "Percent increase of r-CBF, 30 min.", "setting": "[2]; i.v. over 10 minutes, 1 mg/kg", "value": 13.3, "unit": "%"}, {"measurement": "Percent increase of r-CBF, 60 min.", "setting": "[2]; i.v. over 10 minutes, 1 mg/kg", "value": 14.7, "unit": "%"}]}
{"smiles": "CCOC(=O)c1ccc2c(c1)N=Cc1ccc(C)cc1O2", "note": "[No. II, reference compound]", "values": [{"measurement": "Vasorelaxation", "setting": "basilar artery; [5]", "value": 0, "unit": "mg"}]}
{"smiles": "CCC1=Nc2cc(C(=O)O)ccc2Oc2cc(O)ccc21", "note": "[No. I, reference compound]", "values": [{"measurement": "Vasorelaxation", "setting": "basilar artery; [5]", "value": -20.5, "unit": "mg"}]}
{"smiles": "CCC1=Nc2cc(C(=O)O)ccc2Oc2cc(OC)ccc21", "note": "[2 (Na salt), sodium salt of 3-methoxy-11-ethyldibenzo[b,f][1,4]oxazepin-8-carboxylic acid]", "values": [{"measurement": "Retention time", "setting": "[2]; [6]", "value": "> 4", "unit": "h"}, {"measurement": "Percent increase of r-CBF, 30 min.", "setting": "[2]; [6]", "value": 12.1, "unit": "%"}, {"measurement": "Percent increase of r-CBF, 60 min.", "setting": "[2]; [6]", "value": 21.0, "unit": "%"}, {"measurement": "Retention time", "setting": "[2]; i.v. over 10 minutes, 1 mg/kg", "value": "> 4", "unit": "h"}, {"measurement": "Percent increase of r-CBF, 30 min.", "setting": "[2]; i.v. over 10 minutes, 1 mg/kg", "value": 8.1, "unit": "%"}, {"measurement": "Percent increase of r-CBF, 60 min.", "setting": "[2]; i.v. over 10 minutes, 1 mg/kg", "value": 10.0, "unit": "%"}]}
{"smiles": "CCOC(=O)c1ccc2c(c1)N=C(c1ccccc1)c1ccc(OC)cc1O2", "note": "[No. III, reference compound]", "values": [{"measurement": "Vasorelaxation", "setting": "basilar artery; [5]", "value": 0, "unit": "mg"}]}
